# Measurements published in patent publication US5262411A, “Isocephem derivatives, and antimicrobial composition containing the derivatives” (Otsuka Pharmaceutical Co., Ltd., priority 1989, dated 1993).
# Like-named read-outs stand apart in the source and are kept apart here.
# How the values were obtained:
# Format in all cases: cell-based
# A. calcoaceticus Ac-54 = experiment: MIC against A. calcoaceticus Ac-54 by the plate diluted method; conditions: Acinetobacter calcoaceticus, AC54; A. calcoaceticus Ac-54; 1×10^6 cells/ml; read-out: MIC
# Experimental: (§1) In order to investigate the in vitro activity of the test compounds against various bacteria, the minimal inhibitory concentration (MIC) values were determined by the plate diluted method (See CHEMOTHERAPY, 22, 1126-1128, 1974.)
# (§2) Each strain was adjusted to 1×10^6 cells/ml (O.D. 600 mμ, 0.07 to 0.16).
# S. aureaus FDA-209P = experiment: MIC against S. aureaus FDA-209P by the plate diluted method; conditions: Staphylococcus aureus, FDA209P
# Experimental: as §1, §2
# P. aeruginosa E-2 = experiment: MIC against P. aeruginosa E-2 by the plate diluted method; conditions: Pseudomonas aeruginosa, E2; P. aeruginosa E-2; 1×10^6 cells/ml; read-out: MIC
# Experimental: as §1, §2
# S. marcescens IFO 12648 = experiment: MIC against S. marcescens IFO 12648 by the plate diluted method; conditions: Serratia marcescens, IFO12648; S. marcescens IFO 12648; 1×10^6 cells/ml; read-out: MIC
# Experimental: as §1, §2
# E. coli No. 29 = experiment: MIC against E. coli No. 29 by the plate diluted method; conditions: Escherichia coli, 1×10^6 cells/ml
# Experimental: as §1, §2
# K. pneumoniae NCTC-9632 = experiment: MIC against K. pneumoniae NCTC-9632 by the plate diluted method; conditions: Klebsiella pneumoniae, NCTC9632; K. pneumoniae NCTC-9632; 1×10^6 cells/ml; read-out: MIC
# Experimental: as §1, §2
# M. moganii IIDkono = experiment: MIC against M. moganii IIDkono by the plate diluted method
# Experimental: as §1, §2
# P. aeruginosa ATCC-10145 = experiment: MIC against P. aeruginosa ATCC-10145 by the plate diluted method; conditions: Pseudomonas aeruginosa, ATCC10145; P. aeruginosa ATCC-10145; 1×10^6 cells/ml; read-out: MIC
# Experimental: as §1, §2
# [1] = S. aureaus FDA-209P, 1×10^6 cells/ml, read-out: MIC
# [2] = M. moganii IIDkono, 1×10^6 cells/ml, read-out: MIC
MIC (S. aureaus FDA-209P; [1]),MIC (M. moganii IIDkono; [2]),Structure (SMILES),MIC (A. calcoaceticus Ac-54),MIC (P. aeruginosa E-2),MIC (S. marcescens IFO 12648),MIC (E. coli No. 29),MIC (K. pneumoniae NCTC-9632),MIC (M. moganii IIDkono),MIC (P. aeruginosa ATCC-10145),MIC (S. aureaus FDA-209P)
12.5 µg/mL,0.1 µg/mL,"Nc1nc(/C(=N/OCc2cc(=O)c(O)cn2O)C(=O)N[C@@H]2C(=O)N3C(C(=O)O)=C(CSc4nncs4)SC[C@H]23)cs1 [No. 2, (6S,7S)-7-[(Z)-2-(2-Aminothiazol-4-yl)-2-(1,5-dihydroxy-4-pyridone-2-ylmethoxyimino)acetamide]-3-(1,3,4-thiadiazol-5-yl)thiomethyl-isocephem-4-carboxylic acid]",0.1 µg/mL,0.05 µg/mL,0.05 µg/mL,0.024 µg/mL,≤ 0.006 µg/mL,–,0.05 µg/mL,–
0.78 µg/mL,0.024 µg/mL,"CC(C)(O/N=C(\C(=O)N[C@@H]1C(=O)N2C(C(=O)[O-])=C(CSc3cc[n+](CC(=O)c4ccc(O)c(O)c4)cc3)SC[C@H]12)c1csc(N)n1)C(=O)O [No. 3, (6S,7S)-7-[(Z)-2-(2-aminothiazol-4-yl)-2-(1-carboxy-1-methylethoxy)iminoacetamide]-3-{[1-[2-(3,4-dihydroxyphenyl)-2-oxo]ethyl]-4-pyridinio}thiomethylisocephem-4-carboxylate]",0.1 µg/mL,0.05 µg/mL,0.024 µg/mL,≤ 0.006 µg/mL,≤ 0.006 µg/mL,–,0.05 µg/mL,–
100 µg/mL,0.024 µg/mL,"Nc1nc(/C(=N/OCc2cc(=O)c(O)cn2O)C(=O)N[C@@H]2C(=O)N3C(C(=O)O)=C(CSc4nnnn4CC(=O)O)SC[C@H]23)cs1 [No. 9, (6S,7S)-7-[(Z)-2-(2-aminothiazol-4-yl)-2-(1,5-dihydroxy-4-pyridone-2-ylmethoxyimino)acetamide]-3-(1-carboxymethyl-1H-tetrazole-5-ylthiomethyl)isocephem-4-carboxylic acid]",0.012 µg/mL,0.05 µg/mL,0.012 µg/mL,0.012 µg/mL,≤ 0.006 µg/mL,–,0.05 µg/mL,–
50 µg/mL,0.05 µg/mL,"Nc1nc(/C(=N/OCc2cc(=O)c(O)cn2O)C(=O)N[C@@H]2C(=O)N3C(C(=O)O)=C(CSc4nnc(N)s4)SC[C@H]23)cs1 [No. 10, (6S,7S)-7-[(Z)-2-(2-aminothiazol-4-yl)-2-(1,5-dihydroxy-4-pyridone-2-ylmethoxyimino)acetamide]-3-(2-amino-1,3,4-thiadiazol-5-ylthiomethyl)isocephem-4-carboxylic acid]",0.78 µg/mL,0.2 µg/mL,0.05 µg/mL,0.05 µg/mL,0.05 µg/mL,–,0.1 µg/mL,–
50 µg/mL,0.024 µg/mL,"Nc1nc(/C(=N/OCc2cc(=O)c(O)cn2O)C(=O)N[C@@H]2C(=O)N3C(C(=O)O)=C(CSc4nnnn4CCO)SC[C@H]23)cs1 [No. 11, (6S,7S)-7-[(Z)-2-(2-aminothiazol-4-yl)-2-(1,5-dihydroxy-4-pyridone-2-ylmethoxyimino)acetamide]-3-[1-(2-hydroxyethyl)-1H-tetrazole-5-ylthiomethyl]isocephem-4-carboxylic acid]",0.2 µg/mL,0.05 µg/mL,0.012 µg/mL,0.05 µg/mL,0.012 µg/mL,–,0.05 µg/mL,–
12.5 µg/mL,0.1 µg/mL,"Nc1nc(/C(=N/OCc2cc(=O)c(O)cn2O)C(=O)N[C@@H]2C(=O)N3C(C(=O)[O-])=C(CSc4cc[n+](CC(=O)O)cc4)SC[C@H]23)cs1 [No. 12, (6S,7S)-7-[(Z)-2-(2-aminothiazol-4-yl)-2-(1,5-dihydroxy-4-pyridone-2-ylmethoxyimino)acetamide]-3-[(1-carboxymethyl-4-pyridinio)thiomethyl]isocephem-4-carboxylate]",0.39 µg/mL,0.2 µg/mL,0.05 µg/mL,0.012 µg/mL,≤ 0.006 µg/mL,–,0.1 µg/mL,–
100 µg/mL,0.024 µg/mL,"Cc1nc(SCC2=C(C(=O)O)N3C(=O)[C@@H](NC(=O)/C(=N\OCc4cc(=O)c(O)cn4O)c4csc(N)n4)[C@H]3CS2)sc1CC(=O)O [No. 13, (6S,7S)-7-[(Z)-2-(2-aminothiazol-4-yl)-2-(1,5-dihydroxy-4-pyridone-2-ylmethoxyimino)acetamide]-3-[(5-carboxymethyl-4-methyl-thiazol-2-yl)thiomethyl]isocephem-4-carboxylic acid]",0.012 µg/mL,0.05 µg/mL,0.012 µg/mL,0.012 µg/mL,≤ 0.006 µg/mL,–,0.05 µg/mL,–
–,–,"CC(C)(O/N=C(\C(=O)N[C@@H]1C(=O)N2C(C(=O)[O-])=C(CSc3cc[n+](CC(=O)NNC(=O)c4ccc(O)c(O)c4)cc3)CS[C@H]12)c1csc(N)n1)C(=O)O [No. 15, (6R,7R)-7-[(Z)-2-(2-aminothiazol-4-yl)-2-(1-carboxy-1-methylethoxy)imino]acetamide-3-[1-(N-3,4-dihydroxybenzamide)carbamoylmethyl-4-pyridinio]thiomethyl-3-cephem-4-carboxylate]",0.1 µg/mL,0.05 µg/mL,0.05 µg/mL,0.012 µg/mL,0.012 µg/mL,0.05 µg/mL,0.05 µg/mL,3.13 µg/mL

Structure (SMILES),MIC (S. aureaus FDA-209P; [1]),MIC (M. moganii IIDkono; [2]),MIC (A. calcoaceticus Ac-54),MIC (P. aeruginosa E-2),MIC (S. marcescens IFO 12648),MIC (E. coli No. 29),MIC (K. pneumoniae NCTC-9632),MIC (M. moganii IIDkono),MIC (P. aeruginosa ATCC-10145),MIC (S. aureaus FDA-209P)
"Cc1nnc(SCC2=C(C(=O)O)N3C(=O)[C@@H](NC(=O)/C(=N\OCc4cc(=O)c(O)cn4O)c4csc(N)n4)[C@H]3CS2)s1 [No. 1, (6S,7S)-7-[(Z)-2-(2-Aminothiazol-4-yl)-2-(1,5-dihydroxy-4-pyridone-2-ylmethoxyimino)acetamide]-3-(2-methyl-1,3,4-thiadiazol-5-yl)thiomethyl-isocephem-4-carboxylic acid]",25 µg/mL,–,0.1 µg/mL,0.2 µg/mL,0.024 µg/mL,0.024 µg/mL,0.012 µg/mL,0.05 µg/mL,0.1 µg/mL,–
CC(C)(O/N=C(\C(=O)N[C@@H]1C(=O)N2C(C(=O)[O-])=C(CSc3cc[n+](CC(=O)NNC(=O)c4ccc(O)c(O)c4)cc3)SC[C@H]12)c1csc(N)n1)C(=O)O [No. 4],–,0.024 µg/mL,0.2 µg/mL,0.1 µg/mL,0.024 µg/mL,0.012 µg/mL,≤ 0.006 µg/mL,–,0.1 µg/mL,3.13 µg/mL
"Cc1nnc(SCC2=C(C(=O)O)N3C(=O)[C@@H](NC(=O)/C(=N\OCc4ccc(O)c(O)c4)c4csc(N)n4)[C@H]3CS2)s1 [No. 5, (6S,7S)-7-[(Z)-2-(2-aminothiazol-4-yl)-2-(3,4-dihydroxyphenylmethoxyimino)]acetamide-3-(2-methyl-1,3,4-thiadiazol-5-ylthiomethyl)isocephem-4-carboxylic acid]",–,0.05 µg/mL,0.39 µg/mL,0.39 µg/mL,0.05 µg/mL,0.012 µg/mL,0.012 µg/mL,–,0.39 µg/mL,1.56 µg/mL
"Cc1nnc(SCC2=C(C(=O)O)N3C(=O)[C@@H](NC(=O)/C(=N\OC(C(=O)O)c4ccc(O)c(O)c4)c4csc(N)n4)[C@H]3CS2)s1 (stereo partly drawn) [No. 6, (6S,7S)-7-{(Z)-2-(2-aminothiazol-4-yl)-2-[carboxy(3,4-dihydroxyphenol)methoxyimino]}acetamide-3-(2-methyl-1,3,4-thiadiazol-5-ylthiomethyl)isocephem-4-carboxylic acid]",–,0.024 µg/mL,0.2 µg/mL,0.39 µg/mL,0.012 µg/mL,0.012 µg/mL,≤ 0.006 µg/mL,–,0.2 µg/mL,3.13 µg/mL
"CC(C)(O/N=C(\C(=O)N[C@@H]1C(=O)N2C(C(=O)[O-])=C(CSc3cc[n+](Cc4cc(=O)c(O)c[nH]4)cc3)SC[C@H]12)c1csc(N)n1)C(=O)O [No. 7, (6S,7S)-7-[(Z)-2-(2-aminothiazol-4-yl)-2-(1-carboxy-1-methylethoxy)imino]acetamide-3-[(5-hydroxy-4-pyridone-2-yl)methyl-4-pyridinio]thiomethylisocephem-4-carboxylate]",–,0.024 µg/mL,0.2 µg/mL,0.1 µg/mL,0.012 µg/mL,0.012 µg/mL,0.012 µg/mL,–,0.1 µg/mL,3.13 µg/mL
"Nc1nc(/C(=N/OCC(=O)O)C(=O)N[C@@H]2C(=O)N3C(C(=O)[O-])=C(CSc4cc[n+](CC(=O)c5ccc(O)c(O)c5)cc4)OC[C@H]23)cs1 [No. 8, (6S,7S)-7-[(Z)-2-(2-aminothiazol-4-yl)-2-(1-carboxymethoxy)iminoacetamide]-3 {[1-[2-(3,4-dihydroxyphenyl)-2-oxo]ethyl]-4-pyridinio}thiomethyl-Δ^3 -O-2-isocephem-4-carboxylate]",–,0.024 µg/mL,0.05 µg/mL,0.1 µg/mL,0.024 µg/mL,≤ 0.006 µg/mL,≤ 0.006 µg/mL,–,0.05 µg/mL,1.56 µg/mL
CC(C)(O/N=C(\C(=O)N[C@@H]1C(=O)N2C(C(=O)[O-])=C(CSc3cc[n+](Cc4cc(=O)c(O)c[nH]4)cc3)CS[C@H]12)c1csc(N)n1)C(=O)O [No. 14],6.25 µg/mL,–,0.39 µg/mL,0.1 µg/mL,0.024 µg/mL,0.05 µg/mL,0.012 µg/mL,0.05 µg/mL,0.2 µg/mL,–
